Source: PMC11983343, “Synthesis of Thiazole-methylsulfonyl Derivatives, X-ray Study, and Investigation of Their Carbonic Anhydrase Activities: In Vitro and In Silico Potentials” (ACS Omega, 2025)

Columns and labels:
hCA I = biological target: T1, hCA I (Homo sapiens, UniProt P00915); assay: Carbonic anhydrase I inhibition assay (esterase method, p-nitrophenyl acetate, 348 nm); format: biochemical; details: hCA I purified from human erythrocytes
T1 construct: hCA I and hCA II isoenzymes purified from human erythrocytes under in vitro conditions; from tissue; host or cells: human erythrocytes
T1 sequence (P00915 whole entry): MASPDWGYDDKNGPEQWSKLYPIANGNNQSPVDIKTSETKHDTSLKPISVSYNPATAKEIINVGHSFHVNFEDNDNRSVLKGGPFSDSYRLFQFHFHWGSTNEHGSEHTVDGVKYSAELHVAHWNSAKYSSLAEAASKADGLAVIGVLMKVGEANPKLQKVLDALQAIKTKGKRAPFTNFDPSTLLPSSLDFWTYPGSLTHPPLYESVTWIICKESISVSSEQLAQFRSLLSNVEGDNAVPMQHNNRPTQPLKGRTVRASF
Source text: (§1) The esterase method was used to investigate the effects of the molecule on hCA isoenzymes.[44] This method is based on the activity of hCA for the hydrolysis of p-nitrophenyl acetate as a substrate for the reaction mechanism of p-nitrophenol or p-nitrophenolate. […] Since p-nitrophenyl acetate has very little absorption at this wavelength, it will be used as a blank. The p-nitrophenyl acetate substrate solution used in the experiments will be prepared daily.[45],[46]
(§2) Then, the cuvette content containing enzymes, unlike the blank cuvette, was prepared according to Table 1 and placed in the spectrophotometer device. […] Then, molecules at different concentrations were added one by one, the absorbances at 0 and 3 min were measured again, and their differences were taken.[45],[46] […] The enzyme activity values obtained were converted to % activity, their graphs were drawn according to the different concentrations of the molecules, and the IC50 value, that is, the concentration of molecules that reduced the enzyme activity by half, was found. The values were interpreted.
(§3) For the inhibition study, five different inhibitor concentrations of molecules were used at a fixed substrate concentration, and the inhibitor concentration (IC50) values that reduced the enzyme’s activity by half were determined by drawing % activity–[I] graphs.

hCA II = biological target: T2, hCA II (Homo sapiens, UniProt P00918); assay: Carbonic anhydrase II inhibition assay (esterase method, p-nitrophenyl acetate, 348 nm); format: biochemical; details: hCA II purified from human erythrocytes
T2 construct: hCA I and hCA II isoenzymes purified from human erythrocytes under in vitro conditions; from tissue; host or cells: human erythrocytes
Source text: as §1, §2, §3

| SMILES | IC50 (hCA I) | IC50 (hCA II) |
| --- | --- | --- |
| CC(=NNc1nc(-c2ccc(Cl)c(Cl)c2)cs1)c1ccc(S(C)(=O)=O)cc1 [2h, 2-(2-(1-(4-(Methylsulfonyl)phenyl)ethylidene)hydrazinyl)-4-(3,4-dichlorophenyl)thiazole] | 60.8 µM | 38.5 µM |
| CC(=NNc1nc(-c2ccc(Br)cc2)cs1)c1ccc(S(C)(=O)=O)cc1 [2f, 2-(2-(1-(4-(Methylsulfonyl)phenyl)ethylidene)hydrazinyl)-4-(4-bromophenyl)thiazole] | 133 µM | 51.3 µM |
| CC(=NNc1nc(-c2ccc([N+](=O)[O-])cc2)cs1)c1ccc(S(C)(=O)=O)cc1 [2a, 2-(2-(1-(4-(Methylsulfonyl)phenyl)ethylidene)hydrazinyl)-4-(4-nitrophenyl)thiazole] | 39.4 µM | 70 µM |
| CC(=NNc1nc(-c2ccc(F)cc2F)cs1)c1ccc(S(C)(=O)=O)cc1 [2i, 2-(2-(1-(4-(Methylsulfonyl)phenyl)ethylidene)hydrazinyl)-4-(2,4-difluorophenyl)thiazole] | 52.9 µM | 86.6 µM |
| CC(=NNc1nc(-c2cccc([N+](=O)[O-])c2)cs1)c1ccc(S(C)(=O)=O)cc1 [2j, 2-(2-(1-(4-(Methylsulfonyl)phenyl)ethylidene)hydrazinyl)-4-(3-nitrophenyl)thiazole] | 80.6 µM | 64.8 µM |
| CC(=NNc1nc(-c2ccc(F)cc2)cs1)c1ccc(S(C)(=O)=O)cc1 [2d, 2-(2-(1-(4-(Methylsulfonyl)phenyl)ethylidene)hydrazinyl)-4-(4-fluorophenyl)thiazole] | 103 µM | 54.1 µM |
| CC(=NNc1nc(-c2ccc(-c3ccccc3)cc2)cs1)c1ccc(S(C)(=O)=O)cc1 [2e, 4-([1,1′-Biphenyl]-4-yl)-2-(2-(1-(4-(methylsulfonyl)phenyl)ethylidene)hydrazinyl)thiazole] | 77.9 µM | 40.5 µM |
| CC(=NNc1nc(-c2ccc(C#N)cc2)cs1)c1ccc(S(C)(=O)=O)cc1 [2c, 2-(2-(1-(4-(Methylsulfonyl)phenyl)ethylidene)hydrazinyl)-4-(4-cyanophenyl)thiazole] | 63 µM | 39.2 µM |
| CC(=NNc1nc(-c2ccc(C)cc2)cs1)c1ccc(S(C)(=O)=O)cc1 [2g, 2-(2-(1-(4-(Methylsulfonyl)phenyl)ethylidene)hydrazinyl)-4-(4-methylphenyl)thiazole] | 198 µM | 78.8 µM |

More lines, in order of falling IC50 (hCA I), values ahead:

| IC50 (hCA I) | IC50 (hCA II) | SMILES |
| --- | --- | --- |
| 67.9 µM | 71.5 µM | CC(=NNc1nc(-c2ccc(Cl)cc2Cl)cs1)c1ccc(S(C)(=O)=O)cc1 [2l, 2-(2-(1-(4-(Methylsulfonyl)phenyl)ethylidene)hydrazinyl)-4-(2,4-dichlorophenyl)thiazole] |
| 59.8 µM | 76.2 µM | COc1ccc(-c2csc(NN=C(C)c3ccc(S(C)(=O)=O)cc3)n2)cc1 [2b, 2-(2-(1-(4-(Methylsulfonyl)phenyl)ethylidene)hydrazinyl)-4-(4-methoxyphenyl)thiazole] |
| 58.7 µM | 86.6 µM | CC(=NNc1nc(-c2ccc(Cl)cc2)cs1)c1ccc(S(C)(=O)=O)cc1 [2k, 2-(2-(1-(4-(Methylsulfonyl)phenyl)ethylidene)hydrazinyl)-4-(4-chlorophenyl) thiazole] |
| 44.4 µM | 53.3 µM | CC(=NNc1nc(-c2ccccc2)cs1)c1ccc(S(C)(=O)=O)cc1 [2m, 2-(2-(1-(4-(Methylsulfonyl)phenyl)ethylidene)hydrazinyl)-4-phenylthiazole] |
